Structures can show the parent of a compound that is named as a salt.
melting point	Compound
210 to 213 °C	NCC1Cc2cc(Cl)cc(C3CCCCC3)c2O1 (racemic) (as salt: hydrochloride) [Example 11, (±)-(5-chloro-7-cyclohexyl-2,3-dihydro-1-benzofuran-2-yl)methylamine]
125 to 128 °C	CNCC1Cc2cc(Cl)cc(C3CCCCC3)c2O1 (racemic) (as salt: hydrochloride) [Example 12, (±)-N-[(5-chloro-7-cyclohexyl-2,3-dihydro-1-benzofuran-2-yl)methyl]-N-methylamine]
174 to 176 °C	COc1cc2c(c(C(C)(C)C)c1)OC(CN)C2 (racemic) (as salt: hydrochloride) [Example 13, (±)-(7-tert-butyl-5-methoxy-2,3-dihydro-1-benzofuran-2-yl)methylamine]
> 250 °C	NCC1Cc2c(C(F)(F)F)ccc(Cl)c2O1 (racemic) (as salt: hydrochloride) [Example 14, (±)-[7-chloro-4-(trifluoromethyl)-2,3-dihydro-1-benzofuran-2-yl]methanamine]
107 to 111 °C (dec.)	NCC1Cc2cccc(Cc3ccccc3)c2O1 (racemic) (as salt: hydrochloride) [Example 15, (±)-1-(7-benzyl-2,3-dihydro-1-benzofuran-2-yl)methanamine]
160 to 164 °C (dec.)	CC(C)c1cccc2c1OC(CN)C2 (racemic) (as salt: hydrochloride) [Example 18, (±)-(7-isopropyl-2,3-dihydro-1-benzofuran-2-yl)methylamine]
> 225 °C (dec.)	Cc1c(Cl)cc(C(C)C)c2c1CC(CN)O2 (racemic) (as salt: hydrochloride) [Example 21, (±)-1-(5-chloro-7-isopropyl-4-methyl-2,3-dihydro-1-benzofuran-2-yl)methanamine]
177 to 180 °C (dec.)	CC(C)(C)c1cccc2c1OC(CN)C2 (racemic) (as salt: hydrochloride) [Example 24, (±)-1-(7-tert-butyl-2,3-dihydro-1-benzofuran-2-yl)methanamine]
229 to 231 °C	CC(C)(C)c1cc(Cl)cc2c1OC(CN)C2 (racemic) (as salt: hydrochloride) [Example 27, (±)-1-(7-tert-butyl-5-chloro-2,3-dihydro-1-benzofuran-2-yl)methanamine]
> 220 °C	COc1ccc2c(c1)OC(CN)C2 (racemic) (as salt: hydrochloride) [Example 30, (±)-1-(6-methoxy-2,3-dihydro-1-benzofuran-2-yl)methanamine]
174 to 175 °C (dec.)	NCC1Cc2cccc(-c3cc(C(F)(F)F)cc(C(F)(F)F)c3)c2O1 (racemic) (as salt: hydrochloride) [Example 32, (±)-1-{7-[3,5-bis(trifluoromethyl)phenyl]-2,3-dihydro-1-benzofuran-2-yl}methanamine]
120 to 124 °C	NCC1Cc2cccc(-c3cccc4ccccc34)c2O1 (racemic) (as salt: hydrochloride) [Example 33, (±)-1-[7-(1-naphthyl)-2,3-dihydro-1-benzofuran-2-yl]methanamine]
> 210 °C	NCC1Cc2cccc(-c3ccc(F)c(Cl)c3)c2O1 (racemic) (as salt: hydrochloride) [Example 34, (±)-1-[7-(3-chloro-4-fluorophenyl)-2,3-dihydro-1-benzofuran-2-yl]methanamine]
165 to 168 °C	NCC1Cc2cccc(-c3cc(Cl)cc(Cl)c3)c2O1 (racemic) (as salt: hydrochloride) [Example 35, (±)-1-[7-(3,5-dichlorophenyl)-2,3-dihydro-1-benzofuran-2-yl]methanamine]
> 200 °C (dec.)	NCC1Cc2cccc(-c3ccccc3)c2O1 (racemic) (as salt: hydrochloride) [Example 36, (±)-1-(7-phenyl-2,3-dihydro-1-benzofuran-2-yl)methanamine]
135 to 140 °C	NCC1Cc2cccc(-c3ccc4ccccc4c3)c2O1 (racemic) (as salt: hydrochloride) [Example 39, (±)-1-[7-(2-naphthyl)-2,3-dihydro-1-benzofuran-2-yl]methanamine]
> 210 °C (dec.)	Cc1cccc(-c2cccc3c2OC(CN)C3)c1 (racemic) (as salt: hydrochloride) [Example 41, (±)-1-[7-(3-methylphenyl)-2,3-dihydro-1-benzofuran-2-yl]methanamine]
> 200 °C	NCC1Cc2cccc(-c3ccsc3)c2O1 (racemic) (as salt: hydrochloride) [Example 44, (±)-1-(7-thien-3-yl-2,3-dihydro-1-benzofuran-2-yl)methanamine]
> 200 °C	Cc1ccccc1-c1cccc2c1OC(CN)C2 (racemic) (as salt: hydrochloride) [Example 47, (±)-1-[7-(2-methylphenyl)-2,3-dihydro-1-benzofuran-2-yl]methanamine]
244 to 246 °C	NCC1Cc2cccc(-c3ccccc3F)c2O1 (racemic) (as salt: hydrochloride) [Example 50, (±)-1-[7-(2-fluorophenyl)-2,3-dihydro-1-benzofuran-2-yl]methanamine]

melting point	Compound
204 to 205 °C	NCC1Cc2cccc(-c3ccccc3C(F)(F)F)c2O1 (racemic) (as salt: hydrochloride) [Example 53, (±)-1-{7-[2-(trifluoromethyl)phenyl]-2,3-dihydro-1-benzofuran-2-yl}methanamine]
> 250 °C	Cc1cccc(C)c1-c1cccc2c1OC(CN)C2 (racemic) (as salt: hydrochloride) [Example 56, (±)-1-[7-(2,6-dimethylphenyl)-2,3-dihydro-1-benzofuran-2-yl]methanamine]
> 250 °C	COc1ccccc1-c1cccc2c1OC(CN)C2 (racemic) (as salt: hydrochloride) [Example 59, (±)-1-[7-(2-methoxyphenyl)-2,3-dihydro-1-benzofuran-2-yl]methanamine]
> 250 °C	NCC1Cc2cccc(-c3ccccc3Cl)c2O1 (racemic) (as salt: hydrochloride) [Example 60, (±)-1-[7-(2-chlorophenyl)-2,3-dihydro-1-benzofuran-2-yl]methanamine]
202 to 204 °C	CC(C)c1ccccc1-c1cccc2c1OC(CN)C2 (racemic) (as salt: hydrochloride) [Example 61, (±)-[7-(2-isopropylphenyl)-2,3-dihydro-1-benzofuran-2-yl]methylamine]
200 to 202 °C	NCC1Cc2cccc(-c3cccc(F)c3)c2O1 (racemic) (as salt: hydrochloride) [Example 64, (±)-1-[7-(3-fluorophenyl)-2,3-dihydro-1-benzofuran-2-yl]methanamine]
150 to 154 °C	NCC1Cc2cccc(-c3cccc(Cl)c3)c2O1 (racemic) (as salt: hydrochloride) [Example 65, (±)-1-[7-(3-chlorophenyl)-2,3-dihydro-1-benzofuran-2-yl]methanamine]
152 to 154 °C	COc1cccc(-c2cccc3c2OC(CN)C3)c1 (racemic) (as salt: hydrochloride) [Example 68, (±)-1-[7-(3-methoxyphenyl)-2,3-dihydro-1-benzofuran-2-yl]methanamine]
172 to 174 °C	NCC1Cc2cccc(-c3cccc(C(F)(F)F)c3)c2O1 (racemic) (as salt: hydrochloride) [Example 69, (±)-1-{7-[3-(trifluoromethyl)phenyl]-2,3-dihydro-1-benzofuran-2-yl}methanamine]
231 to 232 °C	Cc1ccc(-c2cccc3c2OC(CN)C3)cc1 (racemic) (as salt: hydrochloride) [Example 70, (±)-1-[7-(4-methylphenyl)-2,3-dihydro-1-benzofuran-2-yl]methanamine]
237 to 240 °C	NCC1Cc2cccc(-c3ccc(F)cc3)c2O1 (racemic) (as salt: hydrochloride) [Example 73, (±)-1-[7-(4-fluorophenyl)-2,3-dihydro-1-benzofuran-2-yl]methanamine]
212 to 214 °C	NCC1Cc2cccc(-c3ccc(Cl)cc3)c2O1 (racemic) (as salt: hydrochloride) [Example 76, (±)-1-[7-(4-chlorophenyl)-2,3-dihydro-1-benzofuran-2-yl]methanamine]
176 to 178 °C	COc1ccc(-c2cccc3c2OC(CN)C3)cc1 (racemic) (as salt: hydrochloride) [Example 79, (±)-1-[7-(4-methoxyphenyl)-2,3-dihydro-1-benzofuran-2-yl]methanamine]
> 250 °C	NCC1Cc2cccc(-c3ccc(C(F)(F)F)cc3)c2O1 (racemic) (as salt: hydrochloride) [Example 82, (±)-1 {7-[4-(trifluoromethyl)phenyl]-2,3-dihydro-1-benzofuran-2-yl}methanamine]
198 to 200 °C	NCC1Cc2cccc(-c3ccc(Cl)cc3Cl)c2O1 (racemic) (as salt: hydrochloride) [Example 83, (±)-1-[7-(2,4-dichlorophenyl)-2,3-dihydro-1-benzofuran-2-yl]methanamine]
258 °C (dec.)	NCC1Cc2cc(Cl)cc(-c3ccccc3)c2O1 (racemic) (as salt: hydrochloride) [Example 84, (±)-1-(5-chloro-7-phenyl-2,3-dihydro-1-benzofuran-2-yl)methanamine]
231 to 234 °C	NCC1Cc2cc(Cl)cc(-c3ccccc3Cl)c2O1 (racemic) (as salt: hydrochloride) [Example 87, (±)-1-[5-chloro-7-(2-chlorophenyl)-2,3-dihydro-1-benzofuran-2-yl]methanamine]
268 to 271 °C	Cc1cccc(-c2cc(Cl)cc3c2OC(CN)C3)c1 (racemic) (as salt: hydrochloride) [Example 88, (±)-1-[5-chloro-7-(3-methylphenyl)-2,3-dihydro-1-benzofuran-2-yl]methanamine]
195 °C (dec.)	NCC1Cc2cc(Cl)cc(-c3cccc(Cl)c3)c2O1 (racemic) (as salt: hydrochloride) [Example 89, (±)-1-[5-chloro-7-(3-chlorophenyl)-2,3-dihydro-1-benzofuran-2-yl]methanamine]

From patent US7435837B2, “Dihydrobenzofuranyl alkanamine derivatives and methods for using same” (Wyeth, priority 2003, dated 2008)
